Laboratory results taken from patent US20070282004A1, “Use of a Cyclopentenone Prostaglandin for Delaying for the Onset and/or Preventing the Continuation of Labour” (Imperial College Innovations Limited, priority 2003, published 2007).

Tests used:
TNFα = assay: Mouse model of preterm labour (LPS): placental TNFα by ELISA; format: in vivo; conditions: gestation day 16 mice, 6 hours after intrauterine LPS + 15d-PGJ2 vs LPS + vehicle
Experimental: Surgery was performed on timed pregnant MF1 mice at day 16 of gestation. After deep maternal anaesthesia was attained, a minilaparotomy was performed in the lower abdomen. The uterine horns were exposed through the incision and preterm labour was induced by the intrauterine injection of 250 μg lipopolysaccharide (LPS, Sigma) into the gravid horn. This was immediately followed by injection of 4 μg […] (Cayman), or an equal volume of vehicle (methyl acetate), at the same site. The uterus was then returned to the abdomen and the fascia and skin were closed with continuous vicryl sutures.
Mice were sacrificed 6 hours after injection of LPS±15d-PGJ2. Placentae were washed in phosphate buffered saline (PBS), flash frozen in liquid nitrogen and stored at −80° C. until further processing. Fetuses were washed in PBS, then immediately fixed in 4% parafornaldellyde for 24 h and then stored in 70% ethanol until further processing. […]
Homogenate levels of Interlekin-1β (IL-1β) and tumour necrosis factor α (TNFα) were determined in placental lysates by ELISA (R and D systems) according to manufacturers instructions. Total protein concentrations were determined for each homogenate and IL-1β and TNFα levels were expressed as pg/mg total protein. […] Phosphorylated p65 (phospho-p65) was detected by western immunoblotting using a specific antibody (Santa Cruz) and quantified by densitometric analysis.

PPARα = conditions: Forman et al., 1995; cited from earlier work

Structure (SMILES): CCCCCC=CC=C1C(=O)C=C[C@@H]1CC=CCCCC(=O)O [15d-PGJ2, 15-deoxy-Δ^12,14prostaglandin J2]
- TNFα levels in placentae according to drug treatment (TNFα): not significantly altered
- Transactivation of PPAR-α (PPARα): more weakly than PPAR-γ
